# Experimental data: patent US20240131032A1, “AN ACTIVITY-GUIDED MAP OF ELECTROPHILE-CYSTEINE INTERACTIONS IN PRIMARY HUMAN IMMUNE CELLS” (The Scripps Research Institute, priority 2019, published 2024)
# Experiments:
# TMEM173 [1] = target: T1, TMEM173 (Homo sapiens, UniProt Q86WV6, G230A/H232R/R293Q/R71H); test: ISRE-luciferase assay in THP-1 Lucia ISG cells; type: cell-based; settings: 24 h
# T1 construct: endogenous in cells; host or cells: THP-1 Lucia ISG cells
# Procedure: (§1) FIG. 12A is a pie chart showing the fraction of protein targets of active compounds with available crystal structures containing the corresponding liganded cysteine residues. FIG. 12B is a computer-generated model of BPK-21 and BPK-25 interactions with C91 of stimulator of interferon genes protein (STING, or TMEM173). FIG. 12C is a graph of IRF response of THP1-Lucia™ ISG cells. THP-1 Lucia ISG cells were treated with DMSO or BPK-25 in the presence of viral dsDNA (2 μg/mL) for 24 h and the levels of IRF-induced Lucia luciferase were determined using QUANTI-Luc™. Cell viability was measured using CellTiter-Glo™ assay. Luminescence signals for test samples were normalized to DMSO-treated samples and reported as relative light units (RLU)±SEM; n=3/group. […] Relative expression of IL-6, IL-1β, and IP10 (CXCL10) genes was measured by qPCR and normalized to actin. […] GFP-positive cells were further analyzed for CD25 and CD69 expression levels by measuring mean fluorescence intensity of the PE- (PE-CD25) and APC-channels (APC-CD69). […]
# THP-1 Lucia ISG cells were resuspended in low-serum growth media (2% FBS) at a density of 5×10^5 cells/mL and treated with BPK-25 or vehicle (DMSO) in the presence of viral dsDNA (2 μg/mL). […] For each cell type and assay, luminescence signals for test article samples were normalized to vehicle-treated samples and reported as relative light units (RLU).
# TMEM173 [2] = target: T2, TMEM173 (Homo sapiens, UniProt Q86WV6); test: TMEM173/STING pathway activation by cGAMP in PBMCs (qPCR, ELISA, Bio-Plex); type: cell-based; settings: BPK-25 10 μM
# T2 construct: endogenous in cells; host or cells: primary human T cells
# T2 sequence (Q86WV6 whole entry H232R): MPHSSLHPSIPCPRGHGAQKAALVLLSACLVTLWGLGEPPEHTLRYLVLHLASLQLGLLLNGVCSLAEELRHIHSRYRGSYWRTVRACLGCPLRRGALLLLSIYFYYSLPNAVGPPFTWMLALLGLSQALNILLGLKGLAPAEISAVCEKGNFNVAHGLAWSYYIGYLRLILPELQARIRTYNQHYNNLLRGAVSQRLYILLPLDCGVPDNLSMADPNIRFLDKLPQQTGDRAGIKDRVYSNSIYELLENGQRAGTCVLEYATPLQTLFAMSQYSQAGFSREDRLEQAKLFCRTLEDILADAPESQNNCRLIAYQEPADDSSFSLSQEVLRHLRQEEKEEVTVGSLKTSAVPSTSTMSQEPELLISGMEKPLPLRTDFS
# Procedure: as §1
# Freshly isolated PBMCs (4×10^6 cells/mL, 1 mL/well), were treated with BPK-25 (10 μM) or vehicle (DMSO) for 6 h in a 24-well plate, after which cGAMP (10 μM) was added to the wells and the cells were incubated for additional 20 h. […] When run on the Bioplex 200 system, […] of supernatant was mixed with 50 μL of beads and quantified against human cytokines standard curves. […]
# T1 sequence (Q86WV6 whole entry R71H/G230A/H232R/R293Q): as the sequence (Q86WV6 whole entry H232R) above, with R71H, G230A, R293Q counted along it
structure (smiles),measurement,setting,value
C=CC(=O)N(Cc1cccc(Cl)n1)c1ccc(C(=O)Nc2ccccc2)nc1 [BPK-25],TMEM173 activation in human monocyte cell line THP1,TMEM173 [1],inhibited TMEM173 activation
same,TMEM173 activation by cGAMP in primary human PBMCs,TMEM173 [2],inhibited TMEM173 activation
